Where “and” joins values, the source holds several entries; their conditions need not be identical. Equal entries are not always repeated.
Tests used:
[1] = Glucagon blood concentration, nasal powder with hydroxyapatite (Test Example 8); assay type: in vivo, healthy male adults (human)
Protocol: A nasally administrable composition in powdery form was prepared by formulating glucagon (from hog spleen) as a physiologically active peptide at the rate of 40 mg per composition (1,000 mg) with hydroxyapatite as a carrier having a mean particle size ranging from 40 to 45 μm.
The resulting composition was nasally administered once at a dose of 1.2 glucagon unit/30 mg to three healthy male adults and the blood (2.5 ml) was collected from each of the tested adults prior to administration and then at 5, 10, 15, 20, 30, 45, 60, 90, 120, 150 and 180 minutes after administration. The concentration of the glucagon in each of the collected blood samples was assayed with a standard RIA assay kit.

[2] = Glucagon blood concentration, nasal powder with calcium carbonate, two doses (Test Example 12); assay type: in vivo, healthy male adults (human)
Protocol: (§1) A nasally administrable composition in powdery form was prepared by formulating glucagon (from hog spleen) as a physiologically active peptide at the rate of 40 mg per composition (1,000 mg) with calcium carbonate as a carrier having a mean particle size ranging from 40 to 45 μm.
The resulting composition was nasally administered once at a dose of 0.4 glucagon unit/30 mg to two healthy male adults and 2 glucagon unit/30 mg to another two healthy male adults, and the blood (2.5 ml) was collected from each of the tested adults prior to administration and then at 5, 10, 15, 20, 30, 45, 60, 90, 120, 150 and 180 minutes after administration. The concentration of the glucagon in each of the collected blood samples was assayed with a standard RIA assay kit.

[3] = Glucagon blood concentration, nasal powder with calcium carbonate (Test Example 9); assay type: in vivo, healthy male adults (human); conditions: for Concentration of glucagon in the blood: nasal 1.2 glucagon unit/30 mg, individual cases No. 21-24 in order
Protocol: as §1
[…] The concentration of the glucagon in each of the collected blood samples was assayed with a standard RIA assay kit.

[4] = Nasal absorption, clinical effect and irritation (general statement); assay type: in vivo; conditions: powder in specific carrier, nasal route

glucagon
absorption through nasal route [1]: high extent of absorption
Concentration of glucagon in the blood ([1]; 0 min (predose), nasal 1.2 glucagon unit/30 mg, individual cases No. 17-20 in order): 0.051 ng/mL and 0.046 ng/mL and 0.036 ng/mL and 0.068 ng/mL
Concentration of glucagon in the blood ([2]; 0 min (predose), nasal 0.4 glucagon unit/30 mg, individual cases No. 33-34 in order): 0.112 ng/mL and 0.06 ng/mL
Concentration of glucagon in the blood ([2]; 0 min (predose), nasal 2 glucagon unit/30 mg, individual cases No. 35-36 in order): 0.053 ng/mL and 0.097 ng/mL
absorption through nasal route ([2]; 0.4 and 2 glucagon unit): high extent of absorption
Concentration of glucagon in the blood ([2]; 5 min, nasal 0.4 glucagon unit/30 mg, individual cases No. 33-34 in order): 0.115 ng/mL and 0.065 ng/mL
Concentration of glucagon in the blood ([2]; 5 min, nasal 2 glucagon unit/30 mg, individual cases No. 35-36 in order): 0.076 ng/mL and 0.109 ng/mL
Concentration of glucagon in the blood ([2]; 10 min, nasal 0.4 glucagon unit/30 mg, individual cases No. 33-34 in order): 0.119 ng/mL and 0.077 ng/mL
Concentration of glucagon in the blood ([2]; 10 min, nasal 2 glucagon unit/30 mg, individual cases No. 35-36 in order): 0.116 ng/mL and 0.104 ng/mL
Concentration of glucagon in the blood ([2]; 15 min, nasal 0.4 glucagon unit/30 mg, individual cases No. 33-34 in order): 0.13 ng/mL and 0.072 ng/mL
Concentration of glucagon in the blood ([2]; 15 min, nasal 2 glucagon unit/30 mg, individual cases No. 35-36 in order): 0.085 ng/mL and 0.096 ng/mL
Concentration of glucagon in the blood ([2]; 20 min, nasal 0.4 glucagon unit/30 mg, individual cases No. 33-34 in order): 0.127 ng/mL and 0.079 ng/mL
Concentration of glucagon in the blood ([2]; 20 min, nasal 2 glucagon unit/30 mg, individual cases No. 35-36 in order): 0.102 ng/mL and 0.118 ng/mL
Concentration of glucagon in the blood ([2]; 30 min, nasal 0.4 glucagon unit/30 mg, individual cases No. 33-34 in order): 0.116 ng/mL and 0.086 ng/mL
Concentration of glucagon in the blood ([2]; 30 min, nasal 2 glucagon unit/30 mg, individual cases No. 35-36 in order): 0.056 ng/mL and 0.1 ng/mL
Concentration of glucagon in the blood ([2]; 45 min, nasal 0.4 glucagon unit/30 mg, individual cases No. 33-34 in order): 0.121 ng/mL and 0.075 ng/mL
Concentration of glucagon in the blood ([2]; 45 min, nasal 2 glucagon unit/30 mg, individual cases No. 35-36 in order): 0.094 ng/mL and 0.105 ng/mL
Concentration of glucagon in the blood ([2]; 60 min, nasal 0.4 glucagon unit/30 mg, individual cases No. 33-34 in order): 0.137 ng/mL and 0.061 ng/mL
Concentration of glucagon in the blood ([2]; 60 min, nasal 2 glucagon unit/30 mg, individual cases No. 35-36 in order): 0.079 ng/mL and 0.122 ng/mL
Concentration of glucagon in the blood ([2]; 90 min, nasal 0.4 glucagon unit/30 mg, individual cases No. 33-34 in order): 0.122 ng/mL and 0.066 ng/mL
Concentration of glucagon in the blood ([2]; 90 min, nasal 2 glucagon unit/30 mg, individual cases No. 35-36 in order): 0.06 ng/mL and 0.117 ng/mL
Concentration of glucagon in the blood ([2]; 120 min, nasal 0.4 glucagon unit/30 mg, individual cases No. 33-34 in order): 0.108 ng/mL and 0.057 ng/mL
Concentration of glucagon in the blood ([2]; 120 min, nasal 2 glucagon unit/30 mg, individual cases No. 35-36 in order): 0.069 ng/mL and 0.099 ng/mL
Concentration of glucagon in the blood ([2]; 150 min, nasal 0.4 glucagon unit/30 mg, individual cases No. 33-34 in order): 0.111 ng/mL and 0.076 ng/mL
Concentration of glucagon in the blood ([2]; 150 min, nasal 2 glucagon unit/30 mg, individual cases No. 35-36 in order): 0.069 ng/mL and 0.106 ng/mL
Concentration of glucagon in the blood ([2]; 180 min, nasal 0.4 glucagon unit/30 mg, individual cases No. 33-34 in order): 0.11 ng/mL and 0.074 ng/mL
Concentration of glucagon in the blood ([2]; 180 min, nasal 2 glucagon unit/30 mg, individual cases No. 35-36 in order): 0.06 ng/mL and 0.105 ng/mL
absorption through nasal route [3]: high extent of absorption
Concentration of glucagon in the blood ([3]; 0 min (predose)): 0.034 ng/mL and 0.056 ng/mL and 0.042 ng/mL and 0.048 ng/mL
Concentration of glucagon in the blood ([3]; 5 min): 0.073 ng/mL and 0.079 ng/mL and 0.08 ng/mL and 0.053 ng/mL
Concentration of glucagon in the blood ([3]; 10 min): 0.097 ng/mL and 0.091 ng/mL and 0.08 ng/mL and 0.044 ng/mL
Concentration of glucagon in the blood ([3]; 15 min): 0.086 ng/mL and 0.079 ng/mL and 0.083 ng/mL and 0.053 ng/mL
Concentration of glucagon in the blood ([3]; 20 min): 0.085 ng/mL and 0.089 ng/mL and 0.082 ng/mL and 0.05 ng/mL
Concentration of glucagon in the blood ([3]; 30 min): 0.071 ng/mL and 0.077 ng/mL and 0.09 ng/mL and 0.055 ng/mL
Concentration of glucagon in the blood ([3]; 45 min): 0.073 ng/mL and 0.089 ng/mL and 0.076 ng/mL and 0.049 ng/mL
Concentration of glucagon in the blood ([3]; 60 min): 0.064 ng/mL and 0.079 ng/mL and 0.077 ng/mL and 0.046 ng/mL
Concentration of glucagon in the blood ([3]; 90 min): 0.062 ng/mL and 0.078 ng/mL and 0.073 ng/mL and 0.047 ng/mL
Concentration of glucagon in the blood ([3]; 120 min): 0.056 ng/mL and 0.079 ng/mL and 0.088 ng/mL and 0.046 ng/mL
Concentration of glucagon in the blood ([3]; 150 min): 0.052 ng/mL and 0.067 ng/mL and 0.079 ng/mL and 0.054 ng/mL
Concentration of glucagon in the blood ([3]; 180 min): 0.051 ng/mL and 0.066 ng/mL and 0.062 ng/mL and 0.05 ng/mL
absorption into the body [4]: well absorbed into the body
clinical effects [4]: high clinical effects

Source: patent publication US5603943A, “Nasally administrable compositions” (Dott Research Laboratory, priority 1994, dated 1997)
